Measured values reported in EP4806899A1, “FUSED RING DERIVATIVE, PREPARATION METHOD THEREFOR AND USE THEREOF IN MEDICINE” (Shanghai Qilu Pharmaceutical Research and Development …, priority 2023, dated 2025).

Assay: Pharmacokinetic determination in mice after gavage administration (P.O.)
Assay type: in vivo
Settings: male, CD-1, mouse, po, 10 mg/kg, plasma

SMILES: [2H]C([2H])([2H])OC(=O)N[C@@H]1CCOc2c(-c3cc(F)c4c(ccc(=O)n4C)c3)cncc21 [Compound A50]
- Cmax: 9.07 µM
- AUC(0-t) (read-out: AUC0-24): 136 µM·h
